Measurements from ChEMBL document CHEMBL4033754, “Antiobesity Effect of a Short-Length Peptide YY Analogue after Continuous Administration in Mice” (ACS Med Chem Lett, 2017).
Where a SMILES comes first, the peptide text is derived from it. [ ]: non-standard residue; d: D form. The star is where a group is joined. ξ: configuration not given here. Cha = N[C@@H](CC1CCCCC1)C(=O)O; ξCha = NC(CC1CCCCC1)C(=O)O; Isobutyryl = CC(C)C(=O)*; Aib = CC(C)(N)C(=O)O; Bz = O=C(c1ccccc1)*; ξAbu = CCC(N)C(=O)O; Sar = CNCC(=O)O

Assays:
[1] = biological target: T1, Neuropeptide Y receptor type 2 (Homo sapiens, UniProt P49146); test: Displacement of [125I]-PYY from human Y2R expressed in CHO cell membranes after 60 mins by liquid scintillation method
T1 sequence (P49146 whole entry): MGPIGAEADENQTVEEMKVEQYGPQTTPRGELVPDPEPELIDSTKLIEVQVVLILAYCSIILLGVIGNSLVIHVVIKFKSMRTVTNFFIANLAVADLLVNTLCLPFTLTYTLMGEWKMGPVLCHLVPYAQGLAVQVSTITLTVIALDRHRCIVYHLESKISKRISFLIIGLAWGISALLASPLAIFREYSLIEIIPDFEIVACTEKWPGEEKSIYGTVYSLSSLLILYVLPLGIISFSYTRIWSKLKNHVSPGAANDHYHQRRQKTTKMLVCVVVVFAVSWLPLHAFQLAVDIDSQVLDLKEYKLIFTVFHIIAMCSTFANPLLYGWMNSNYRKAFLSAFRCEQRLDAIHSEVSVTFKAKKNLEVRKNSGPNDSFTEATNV

[2] = biological target: T1, Neuropeptide Y receptor type 2; test: Agonist activity at human Y2R expressed in CHO cell membranes assessed as [35S]GTPgammaS binding after 120 mins by liquid scintillation method; assay type: functional
[3] = tested on: Mus musculus; test: Antiobesity activity in lean C57BL/6J mouse assessed as inhibition of food intake at 1 mg/kg administered via subcutaneous osmotic pumps for 3 continuous days relative to control; details: sc

Compound	IC50 [1] [nM]	EC50 [2] [nM]	inhibition in vivo at 1 mg/kg [3] [%]
CCC(NC(=O)[C@H](CCCNC(=N)N)NC(=O)[C@@H](CC(C)C)NC(=O)[C@H](CO)NC(C)=O)C(=O)NC(CC1CCCCC1)C(=O)NC(CC1CCCCC1)C(=O)N[C@@H](CC(N)=O)C(=O)N[C@@H](CC(C)C)C(=O)NC(C)(C)C(=O)N[C@H](C(=O)N[C@@H](CCCNC(=N)N)C(=O)N[C@@H](CCC(N)=O)C(=O)N[C@@H](CCCNC(=N)N)C(=O)NC(CC1CCCCC1)C(N)=O)[C@@H](C)O (stereo partly specified)	11	1.3	–
CC(=O)N[C@@H](CO)C(=O)NCC(=O)N[C@@H](CCCNC(=N)N)C(=O)N[C@@H](Cc1cnc[nH]1)C(=O)NC(CC1CCCCC1)C(=O)NC(CC1CCCCC1)C(=O)N[C@@H](CC(N)=O)C(=O)N[C@@H](CC(C)C)C(=O)NC(C)(C)C(=O)N[C@H](C(=O)N[C@@H](CCCNC(=N)N)C(=O)N[C@@H](CCC(N)=O)C(=O)N[C@@H](CCCNC(=N)N)C(=O)NC(CC1CCCCC1)C(N)=O)[C@@H](C)O (stereo partly specified) (Ac-SGRH[ξCha][ξCha]NL[Aib]TRQR[ξCha]-NH2)	4.8	1.3	–
CCC(NC(=O)[C@H](CCCNC(=N)N)NC(=O)[C@H](CC(C)C)NC(=O)[C@H](CO)NC(=O)[C@H](C)N)C(=O)NC(CC1CCCCC1)C(=O)NC(CC1CCCCC1)C(=O)N[C@@H](CC(N)=O)C(=O)N[C@@H](CC(C)C)C(=O)NC(C)(C)C(=O)N[C@H](C(=O)N[C@@H](CCCNC(=N)N)C(=O)N[C@@H](CCC(N)=O)C(=O)N[C@@H](CCCNC(=N)N)C(=O)NC(CC1CCCCC1)C(N)=O)[C@@H](C)O (stereo partly specified) (H-ASLR[ξAbu][ξCha][ξCha]NL[Aib]TRQR[ξCha]-NH2)	2.7	2.5	–
CC(C)C[C@H](NC(=O)[C@H](CO)NC(=O)[C@H](C)N)C(=O)N[C@@H](CCCNC(=N)N)C(=O)N[C@@H](Cc1cnc[nH]1)C(=O)N[C@@H](CC1CCCCC1)C(=O)N[C@@H](CC1CCCCC1)C(=O)N[C@@H](CC(N)=O)C(=O)N[C@@H](CC(C)C)C(=O)NC(C)(C)C(=O)N[C@H](C(=O)N[C@@H](CCCNC(=N)N)C(=O)N[C@@H](CCC(N)=O)C(=O)N[C@@H](CCCNC(=N)N)C(=O)N[C@@H](CC1CCCCC1)C(N)=O)[C@@H](C)O (H-ASLRH[Cha][Cha]NL[Aib]TRQR[Cha]-NH2)	1.7	0.74	–
CCC(NC(=O)[C@H](CCCNC(=N)N)NC(=O)[C@@H](CC(C)C)NC(=O)[C@@H](CO)NC(C)=O)C(=O)NC(CC1CCCCC1)C(=O)NC(CC1CCCCC1)C(=O)N[C@@H](CC(N)=O)C(=O)N[C@@H](CC(C)C)C(=O)NC(C)(C)C(=O)N[C@H](C(=O)N[C@@H](CCCNC(=N)N)C(=O)N[C@@H](CCC(N)=O)C(=O)N[C@@H](CCCNC(=N)N)C(=O)NC(CC1CCCCC1)C(N)=O)[C@@H](C)O (stereo partly specified)	23	3.8	–
CC(=O)N[C@@H](CO)C(=O)N(C)CC(=O)N[C@@H](CCCNC(=N)N)C(=O)N[C@@H](Cc1cnc[nH]1)C(=O)NC(CC1CCCCC1)C(=O)NC(CC1CCCCC1)C(=O)N[C@@H](CC(N)=O)C(=O)N[C@@H](CC(C)C)C(=O)NC(C)(C)C(=O)N[C@H](C(=O)N[C@@H](CCCNC(=N)N)C(=O)N[C@@H](CCC(N)=O)C(=O)N[C@@H](CCCNC(=N)N)C(=O)NC(CC1CCCCC1)C(N)=O)[C@@H](C)O (stereo partly specified) (Ac-S[Sar]RH[ξCha][ξCha]NL[Aib]TRQR[ξCha]-NH2)	2.8	1	13
CCC(NC(=O)[C@H](CCCNC(=N)N)NC(=O)[C@H](CC(C)C)NC(=O)[C@@H](CO)NC(C)=O)C(=O)NC(CC1CCCCC1)C(=O)NC(CC1CCCCC1)C(=O)N[C@@H](CC(N)=O)C(=O)N[C@@H](CC(C)C)C(=O)NC(C)(C)C(=O)N[C@H](C(=O)N[C@@H](CCCNC(=N)N)C(=O)N[C@@H](CCC(N)=O)C(=O)N[C@@H](CCCNC(=N)N)C(=O)NC(CC1CCCCC1)C(N)=O)[C@@H](C)O (stereo partly specified)	12	5.5	–
CCC(NC(=O)[C@H](CCCNC(=N)N)NC(=O)[C@H](CC(C)C)NC(=O)[C@H](CO)NC(=O)[C@H](C)NC(C)=O)C(=O)NC(CC1CCCCC1)C(=O)NC(CC1CCCCC1)C(=O)N[C@@H](CC(N)=O)C(=O)N[C@@H](CC(C)C)C(=O)NC(C)(C)C(=O)N[C@H](C(=O)N[C@@H](CCCNC(=N)N)C(=O)N[C@@H](CCC(N)=O)C(=O)N[C@@H](CCCNC(=N)N)C(=O)NC(CC1CCCCC1)C(N)=O)[C@@H](C)O (stereo partly specified) (Ac-ASLR[ξAbu][ξCha][ξCha]NL[Aib]TRQR[ξCha]-NH2)	6.8	4.6	–
CCC(NC(=O)[C@H](CCCNC(=N)N)NC(=O)[C@H](CC(C)C)NC(=O)[C@H](CO)NC(C)=O)C(=O)NC(CC1CCCCC1)C(=O)NC(CC1CCCCC1)C(=O)N[C@@H](CC(N)=O)C(=O)N[C@@H](CC(C)C)C(=O)NC(C)(C)C(=O)N[C@H](C(=O)N[C@@H](CCCNC(=N)N)C(=O)N[C@@H](CCC(N)=O)C(=O)N[C@@H](CCCNC(=N)N)C(=O)NC(CC1CCCCC1)C(N)=O)[C@@H](C)O (stereo partly specified)	8.8	3	–
CC(=O)N[C@@H](CO)C(=O)N(C)[C@H](C)C(=O)N[C@@H](CCCNC(=N)N)C(=O)N[C@@H](Cc1cnc[nH]1)C(=O)NC(CC1CCCCC1)C(=O)NC(CC1CCCCC1)C(=O)N[C@@H](CC(N)=O)C(=O)N[C@@H](CC(C)C)C(=O)NC(C)(C)C(=O)N[C@H](C(=O)N[C@@H](CCCNC(=N)N)C(=O)N[C@@H](CCC(N)=O)C(=O)N[C@@H](CCCNC(=N)N)C(=O)NC(CC1CCCCC1)C(N)=O)[C@@H](C)O (stereo partly specified)	2.8	0.59	28
CC(=O)N[C@@H](CO)C(=O)N(C)[C@@H](C)C(=O)N[C@@H](CCCNC(=N)N)C(=O)N[C@@H](Cc1cnc[nH]1)C(=O)NC(CC1CCCCC1)C(=O)NC(CC1CCCCC1)C(=O)N[C@@H](CC(N)=O)C(=O)N[C@@H](CC(C)C)C(=O)NC(C)(C)C(=O)N[C@H](C(=O)N[C@@H](CCCNC(=N)N)C(=O)N[C@@H](CCC(N)=O)C(=O)N[C@@H](CCCNC(=N)N)C(=O)NC(CC1CCCCC1)C(N)=O)[C@@H](C)O (stereo partly specified)	5.4	1.2	–
CCC(NC(=O)[C@H](CCCNC(=N)N)NC(=O)C(C)C)C(=O)NC(CC1CCCCC1)C(=O)NC(CC1CCCCC1)C(=O)N[C@@H](CC(N)=O)C(=O)N[C@@H](CC(C)C)C(=O)NC(C)(C)C(=O)N[C@H](C(=O)N[C@@H](CCCNC(=N)N)C(=O)N[C@@H](CCC(N)=O)C(=O)N[C@@H](CCCNC(=N)N)C(=O)NC(CC1CCCCC1)C(N)=O)[C@@H](C)O (stereo partly specified) (Isobutyryl-R[ξAbu][ξCha][ξCha]NL[Aib]TRQR[ξCha]-NH2)	7.3	4.2	–
CCC(NC(=O)[C@H](CCCNC(=N)N)NC(=O)c1ccccc1)C(=O)NC(CC1CCCCC1)C(=O)NC(CC1CCCCC1)C(=O)N[C@@H](CC(N)=O)C(=O)N[C@@H](CC(C)C)C(=O)NC(C)(C)C(=O)N[C@H](C(=O)N[C@@H](CCCNC(=N)N)C(=O)N[C@@H](CCC(N)=O)C(=O)N[C@@H](CCCNC(=N)N)C(=O)NC(CC1CCCCC1)C(N)=O)[C@@H](C)O (stereo partly specified) (Bz-R[ξAbu][ξCha][ξCha]NL[Aib]TRQR[ξCha]-NH2)	5.7	4.6	–
CCC(NC(=O)[C@H](CCCNC(=N)N)NC(=O)[C@H](CC(C)C)NC(C)=O)C(=O)NC(CC1CCCCC1)C(=O)NC(CC1CCCCC1)C(=O)N[C@@H](CC(N)=O)C(=O)N[C@@H](CC(C)C)C(=O)NC(C)(C)C(=O)N[C@H](C(=O)N[C@@H](CCCNC(=N)N)C(=O)N[C@@H](CCC(N)=O)C(=O)N[C@@H](CCCNC(=N)N)C(=O)NC(CC1CCCCC1)C(N)=O)[C@@H](C)O (stereo partly specified) (Ac-LR[ξAbu][ξCha][ξCha]NL[Aib]TRQR[ξCha]-NH2)	17	6.4	–
CC(=O)N[C@@H](CO)C(=O)NC(C)(C)C(=O)N[C@@H](CCCNC(=N)N)C(=O)N[C@@H](Cc1cnc[nH]1)C(=O)NC(CC1CCCCC1)C(=O)NC(CC1CCCCC1)C(=O)N[C@@H](CC(N)=O)C(=O)N[C@@H](CC(C)C)C(=O)NC(C)(C)C(=O)N[C@H](C(=O)N[C@@H](CCCNC(=N)N)C(=O)N[C@@H](CCC(N)=O)C(=O)N[C@@H](CCCNC(=N)N)C(=O)NC(CC1CCCCC1)C(N)=O)[C@@H](C)O (stereo partly specified) (Ac-S[Aib]RH[ξCha][ξCha]NL[Aib]TRQR[ξCha]-NH2)	2	0.55	51
CC(=O)N[C@@H](CO)C(=O)N1CCC[C@@H]1C(=O)N[C@@H](CCCNC(=N)N)C(=O)N[C@@H](Cc1cnc[nH]1)C(=O)NC(CC1CCCCC1)C(=O)NC(CC1CCCCC1)C(=O)N[C@@H](CC(N)=O)C(=O)N[C@@H](CC(C)C)C(=O)NC(C)(C)C(=O)N[C@H](C(=O)N[C@@H](CCCNC(=N)N)C(=O)N[C@@H](CCC(N)=O)C(=O)N[C@@H](CCCNC(=N)N)C(=O)NC(CC1CCCCC1)C(N)=O)[C@@H](C)O (stereo partly specified)	1.5	0.61	33
